Source: article PMC3565340, “Crystal Structure of Dimeric Flavodoxin from Desulfovibrio gigas Suggests a Potential Binding Region for the Electron-Transferring Partner” (International Journal of Molecular Sciences, 2013)

Target: T1, Fld (flavodoxin from Desulfovibrio gigas) (Megalodesulfovibrio gigas, UniProt Q01095)
T1 construct: native, purified from anaerobically grown D. gigas cells; untagged; 146 residues, 15 kDa; residues 2-146 modelled; homodimer
Test: X-ray crystal structure of the complex, […] Å
Assay type: binding
Conditions: non-covalently bound native cofactor, co-purified; crystals at pH 6.5 (bis-Tris, PEG550, CaCl2); semiquinone-like state

T1 sequence (Q01095 whole entry, the tested form may be a part): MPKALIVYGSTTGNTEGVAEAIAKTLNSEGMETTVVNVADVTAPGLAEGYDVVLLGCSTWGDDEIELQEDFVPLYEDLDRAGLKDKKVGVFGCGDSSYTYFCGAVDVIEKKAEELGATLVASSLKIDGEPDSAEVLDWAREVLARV

Structure (SMILES): Cc1cc2nc3c(=O)[nH]c(=O)nc-3n(C[C@H](O)[C@H](O)[C@H](O)COP(=O)(O)O)c2cc1C [FMN, flavin mononucleotide]
- X-ray crystal structure of the complex, 1.3 Å: the position of FMN was well defined by the electron density
